ChEMBL document CHEMBL1135238, “Antibody-catalyzed cleavage of the D-Ala-D-Lac depsipeptide: an immunological approach to the problem of vancomycin resistance” (Bioorg Med Chem Lett, 2002)
pKi: −log10 of the molar value. Square brackets hold non-standard residues; d marks the D form. Peptide text beside a SMILES is read from it.

How the values were obtained:
[1] = inhibitory activity of compound using pentapeptide cell-wall peptidoglycan (PG) substrates
[2] = Ratio of Kcat to Km was determined
[3] = Ratio of Kcat to Kuncat was determined
[4] = Km value was determined
[5] = Kcat value was determined

| Compound | pKi [1] | Ratio [2] | Ratio [3] | Km [4] | k cat [5] |
| --- | --- | --- | --- | --- | --- |
| CC(=O)NCCCC[C@H](NC(=O)CCNC(=O)CCCC(=O)ON1C(=O)CCC1=O)C(=O)N[C@H](C)P(=O)(O)O[C@H](C)C(=O)O | > 3.80 | 0.921 | 530 | 2170 µM | 3.33e-05 s⁻¹ |
| CC(=O)NCCCC[C@H](NC(C)=O)C(=O)N[C@H](C)C(=O)N[C@H](C)C(=O)O (Ac-Lys(Ac)-[dA]-[dA]-OH) | 1.89 |  |  |  |  |
